Source: US20110039770A1, “INHIBITORS OF PROTEIN KINASE C ISOFORMS AND USES THEREOF” (PHARMAGAP INC., priority 2005, published 2011)
Where a SMILES comes first, the peptide text is derived from it. The star is where a group is joined. PNA(A) = NCCN(CC(=O)*)C(=O)Cn1cnc2c(N)ncnc21

Columns and labels:
PKC-α = target: T1, PKC-α (Rattus norvegicus, UniProt P05696); assay: Competition of PRE with PKC-α antibody binding on Western blot, Protocol A, C6Cx43 lysate; conditions: C6Cx43 cells
T1 construct: C6Cx43 cells (rat glioma transfected cells overexpressing connexin 43); endogenous in cells; host or cells: C6Cx43 rat glioma cells (transfected with connexin 43, not with PKC)
Experimental: The ability of the PRE 1, 2 and 3 (see Table 3 above) to interfere with the binding of a PKC-α-specific polyclonal antibody to PKC-α was determined using the following protocol.
Cell lysates from either IMR-32 (human neuroblastoma) cells or C6Cx43 cells (rat glioma transfected cells overexpressing connexin 43) were obtained using standard protocols and the proteins of the lysate were separated by SDS PAGE electrophoresis and electrotransferred onto a nitrocellulose membrane. The membrane was incubated for 30 minutes in blocking buffer (TBST) containing the test peptide at either 5× or 20× the concentrations of the primary antibody. A primary polyclonal antibody specific for PKC-α (Santa Cruz Biotechnology, Inc., CA) was then added (15 μg/ml) and the membrane incubated for a further 45 minutes. Finally, the primary antibody was detected with a secondary antibody conjugated to alkaline phosphatase using standard procedures. The intensity of the band corresponding to PKC-α was assessed by scanning and densitometry using the Gel-Pro software (Media Cybernetics) to obtain relative band intensities (average of 3 replicas). Control assays were conducted as described above except that blocking buffer without peptide was used.
The results are expressed as relative band intensity and as a percentage of the intensity of the corresponding band in the control assay (“Relative intensity (%)”). “% inhibition” relates to the percentage of the PKC-α band that is inaccessible to the antibody.

[1] = tested on: peripheral blood lymphocytes; assay: Peripheral blood lymphocyte survival and blastogenic response to mitogens; format: cell-based; conditions: primary lymphocytes of pigs, mice and human
PKC beta 1 = PKC beta 1 (Homo sapiens, UniProt P05771); assay: PKC isoform protein levels in cancer cell lines after TIM 10 (Western blot); format: cell-based; set-up: endogenous in cells; conditions: 5 mM by pinocytic influx, 24 hrs
PKC beta 1, sequence (P05771 whole entry, canonical isoform): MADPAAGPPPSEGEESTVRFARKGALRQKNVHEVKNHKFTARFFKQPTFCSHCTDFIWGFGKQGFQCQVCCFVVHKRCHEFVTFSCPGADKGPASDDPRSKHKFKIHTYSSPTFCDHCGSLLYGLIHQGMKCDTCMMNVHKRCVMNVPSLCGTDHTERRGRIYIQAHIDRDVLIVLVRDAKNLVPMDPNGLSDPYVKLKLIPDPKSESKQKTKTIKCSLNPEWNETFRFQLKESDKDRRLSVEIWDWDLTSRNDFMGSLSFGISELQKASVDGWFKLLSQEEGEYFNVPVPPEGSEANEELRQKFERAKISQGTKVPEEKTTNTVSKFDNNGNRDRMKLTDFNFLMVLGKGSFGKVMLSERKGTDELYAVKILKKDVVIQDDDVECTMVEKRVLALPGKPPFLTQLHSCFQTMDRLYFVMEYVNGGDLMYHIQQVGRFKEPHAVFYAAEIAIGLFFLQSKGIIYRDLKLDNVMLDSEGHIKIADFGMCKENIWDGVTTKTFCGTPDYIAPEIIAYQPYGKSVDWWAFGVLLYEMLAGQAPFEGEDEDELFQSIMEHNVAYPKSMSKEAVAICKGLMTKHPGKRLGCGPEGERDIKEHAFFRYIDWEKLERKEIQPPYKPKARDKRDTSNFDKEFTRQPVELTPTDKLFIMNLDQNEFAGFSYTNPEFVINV
Experimental: (§1) The effect of compound TIM 10 on the levels of protein for various PKC isoforms was assessed as generally described below in the following human cancer cell lines: MDA MB-231 breast adenocarcinoma cells (ATCC HTB-26); T24 bladder transitional cell carcinoma (ATCC HTB-4); SKOV-3 ovary adenocarcinoma (ATCC HTB-77); MCF-7 breast adenocarcinoma (ATCC HTB-22); Capan-2 pancreatic adenocarcinoma (ATCC HTB-80); NCI-H661 NSCL large cells (ATCC HTB-183); Calu-6 probable lung anaplastic carcinoma (ATCC HTB-56) and Calu-3 lung adenocarcinoma (ATCC HTB-55).
(§2) Cells representative of the different cancer types were cultured according to ATCC instructions. At subconfluence, the cells were trypsinized and compound 10 (5 mM) was incorporated into the cells by pinocytic influx endocytosis according to the manufacturer's instructions (Molecular Probe). Matching controls were treated accordingly except that vehicle was incorporated instead of compound 10. Following pinocytic influx, the cells were seeded and allowed to grow in fresh medium for 24 hrs. The cell cultures were further extracted using RIPA lysis buffer according to standard protocol. The protein content of each lysate was measured using Bradford protein estimation procedure (BioRad) and normalized. Following addition of sample buffer, the proteins from 15 μl of each extract were separated by electrophoresis, electro-transferred to nitrocellulose membranes and the various isoforms of PKC were detected using appropriate antibodies (Santa Cruz Biotechnology, Inc., CA). The relative intensity of bands of the expected molecular weight was estimated after scanning and the % decrease in the band intensity relative to control was calculated.

PKC delta = PKC delta (Homo sapiens, UniProt Q05655); assay: as above; format: cell-based; set-up: endogenous in cells; conditions: 5 mM by pinocytic influx, 24 hrs
PKC delta, sequence (Q05655 whole entry): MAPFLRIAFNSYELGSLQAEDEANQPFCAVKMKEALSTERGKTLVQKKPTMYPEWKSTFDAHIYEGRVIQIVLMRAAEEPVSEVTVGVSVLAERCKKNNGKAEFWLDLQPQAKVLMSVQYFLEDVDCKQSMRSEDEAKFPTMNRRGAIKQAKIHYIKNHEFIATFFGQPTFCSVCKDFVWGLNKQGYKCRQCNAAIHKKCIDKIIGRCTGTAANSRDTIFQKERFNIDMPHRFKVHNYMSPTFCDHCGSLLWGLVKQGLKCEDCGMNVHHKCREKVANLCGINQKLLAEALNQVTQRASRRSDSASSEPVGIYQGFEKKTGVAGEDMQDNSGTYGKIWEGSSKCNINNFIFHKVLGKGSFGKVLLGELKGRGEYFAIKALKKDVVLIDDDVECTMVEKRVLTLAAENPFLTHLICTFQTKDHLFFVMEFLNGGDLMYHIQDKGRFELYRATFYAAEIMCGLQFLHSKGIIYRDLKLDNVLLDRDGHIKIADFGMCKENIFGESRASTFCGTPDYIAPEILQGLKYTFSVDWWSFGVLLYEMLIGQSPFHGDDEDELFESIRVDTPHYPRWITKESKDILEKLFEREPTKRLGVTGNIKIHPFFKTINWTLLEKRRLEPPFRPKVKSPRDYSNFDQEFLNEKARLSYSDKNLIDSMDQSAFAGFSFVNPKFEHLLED
Experimental: as §1, §2

PKC epsilon = target: T2, PKC epsilon (Homo sapiens, UniProt Q02156); assay: as above; format: cell-based; set-up: endogenous in cells; conditions: 5 mM by pinocytic influx, 24 hrs
T2 sequence (Q02156 1-737): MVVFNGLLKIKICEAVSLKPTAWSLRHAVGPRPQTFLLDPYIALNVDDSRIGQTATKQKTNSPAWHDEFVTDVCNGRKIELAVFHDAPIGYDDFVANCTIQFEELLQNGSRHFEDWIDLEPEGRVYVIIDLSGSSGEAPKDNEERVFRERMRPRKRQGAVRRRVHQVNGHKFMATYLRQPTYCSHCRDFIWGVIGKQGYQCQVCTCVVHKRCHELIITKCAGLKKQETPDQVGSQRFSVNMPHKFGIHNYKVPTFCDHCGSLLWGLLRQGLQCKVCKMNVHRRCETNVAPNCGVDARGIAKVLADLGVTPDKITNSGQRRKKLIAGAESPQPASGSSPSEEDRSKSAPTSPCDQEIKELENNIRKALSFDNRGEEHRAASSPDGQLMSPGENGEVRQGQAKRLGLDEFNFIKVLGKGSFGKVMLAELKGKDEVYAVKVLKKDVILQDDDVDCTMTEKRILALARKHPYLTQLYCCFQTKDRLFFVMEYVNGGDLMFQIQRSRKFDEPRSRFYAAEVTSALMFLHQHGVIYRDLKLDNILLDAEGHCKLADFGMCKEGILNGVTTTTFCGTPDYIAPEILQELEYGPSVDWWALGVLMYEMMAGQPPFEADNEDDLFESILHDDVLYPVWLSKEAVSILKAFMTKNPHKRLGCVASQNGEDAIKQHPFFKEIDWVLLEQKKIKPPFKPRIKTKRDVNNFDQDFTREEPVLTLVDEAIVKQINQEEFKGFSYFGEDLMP
Experimental: as §1, §2

CC[C@H](C)[C@H](NC(=O)[C@H](CO)NC(=O)[C@@H](NC(=O)CNC(=O)[C@@H](NC(=O)[C@H](CC(C)C)NC(=O)[C@H](CC(N)=O)NC(=O)[C@H](CCC(N)=O)NC(=O)[C@H](C)NC(=O)[C@H](CC(=O)O)NC(=O)CNC(=O)CNC(=O)[C@H](CCCCN)NC(=O)[C@@H](NC(=O)[C@H](CCC(=O)O)NC(=O)[C@H](CCC(N)=O)NC(=O)[C@@H](NC(=O)CNC(=O)[C@H](CCCCN)NC(=O)[C@H](C)NC(C)=O)[C@@H](C)CC)C(C)C)[C@@H](C)CC)[C@@H](C)CC)C(N)=O [PRE 3] (Ac-AKGIQEVKGGDAQNLIGISI-NH2)
Band Intensity (PKC-α; 75 μg): 0.909
Band Intensity (PKC-α; 300 μg): 0.888
Band Intensity (PKC-α; 600 μg): 0.889
Band Intensity (PKC-α; 3.75 mg): 0.603
Band Intensity (PKC-α; 5.25 mg): 0.599
Band Intensity (PKC-α; 7.5 mg): 0.589

CC[C@H](C)[C@H](NC(=O)[C@H](CO)NC(=O)[C@@H](NC(=O)CNC(=O)[C@@H](NC(=O)[C@H](CC(C)C)NC(=O)[C@H](CC(N)=O)NC(=O)[C@H](CCC(N)=O)NC(=O)[C@H](C)NC(=O)[C@H](CC(=O)O)NC(=O)[C@H](CCCCN)NC(=O)CNC(=O)CNC(=O)CNC(=O)CNC(=O)CNC(=O)CNC(=O)CNC(=O)[C@H](CC(C)C)NC(=O)[C@H](CCCNC(=N)N)NC(=O)[C@H](Cc1ccccc1)NC(=O)[C@H](CCCCNC(=O)CN(CCN)C(=O)Cn1cnc2c(N)ncnc21)NC(=O)[C@H](CCCNC(=N)N)NC(=O)[C@H](CCCNC(=N)N)NC(=O)[C@H](Cc1ccccc1)NC(C)=O)[C@@H](C)CC)[C@@H](C)CC)C(N)=O [TIM 10] (Ac-FRRK(PNA(A))FRLGGGGGGGKDAQNLIGISI-NH2)
apoptosis of peripheral blood lymphocytes [1]: do not induce apoptosis
blastogenic response to mitogens [1]: do not drastically limit the blastogenic response
% decrease PKC-βI band intensity relative to control (PKC beta 1; Capan-2): 17.5%
% decrease PKC-βI band intensity relative to control (PKC beta 1; H661): 3.0%
% decrease PKC-βI band intensity relative to control (PKC beta 1; MCF-7): 0.0%
% decrease PKC-βI band intensity relative to control (PKC beta 1; MDA-MB231): 0.0%
% decrease PKC-δ band intensity relative to control (PKC delta; Calu-3): 22.2%
% decrease PKC-δ band intensity relative to control (PKC delta; Calu-6): 18.9%
% decrease PKC-δ band intensity relative to control (PKC delta; Capan-2): 53.3%
% decrease PKC-δ band intensity relative to control (PKC delta; H661): 0.0%
% decrease PKC-δ band intensity relative to control (PKC delta; MCF-7): 21.5%
% decrease PKC-δ band intensity relative to control (PKC delta; MDA-MB231): 36.6%
% decrease PKC-δ band intensity relative to control (PKC delta; SK-OV-3): 0.0%
% decrease PKC-δ band intensity relative to control (PKC delta; T24): 62.2%
% decrease PKC-ε band intensity relative to control (PKC epsilon; Capan-2): 0.0%
% decrease PKC-ε band intensity relative to control (PKC epsilon; MCF-7): 0.0%
% decrease PKC-ε band intensity relative to control (PKC epsilon; MDA-MB231): 0.0%
